According to publication PMC12445440 (Journal of Medical Virology, 2025):

Columns and labels:
[1] = system: ZIKV^Br; assay: Virus yield reduction assay, ZIKV^Br on Huh-7 cells; type: cell-based, Zika virus
[2] = system: Huh-7 cells; assay: Cytotoxicity by WST-8, uninfected Huh-7 cells; conditions: read-out: CC50 Huh-7; Table S2, this paper data
[3] = system: BVDV; conditions: previously published data; Na = no detected antiviral activity; ref [18]-[22] of main text, [3] of supplement for PS1086, PS1100, PS1101; cited from earlier work
[4] = system: Vero76; parameters: method as in earlier work; conditions: previously published data; ref [18]-[22] of main text, [3] of supplement for PS1086, PS1100, PS1101; cited from earlier work
[5] = Cytotoxicity by WST-8, uninfected Huh-7 cells; conditions: human
[6] = system: ZIKV^Br; assay: Virus yield assay, ZIKV^Br on VeroE6 cells; type: cell-based; conditions: Zika virus, Vero C1008, 95% CI in brackets
[7] = system: ZIKV^Br; assay: Virus yield assay, ZIKV^Br on Vero TMPRSS cells; type: cell-based; conditions: Zika virus, 95% CI in brackets
[8] = system: ZIKV^Br; assay: Virus yield assay, ZIKV^Br on HMC3 cells; type: cell-based; conditions: Zika virus
[9] = system: ZIKV^Br; assay: Virus yield assay, ZIKV^Br on C6/36 cells; type: cell-based; conditions: Zika virus, 95% CI in brackets
[10] = system: ZIKV^Br; assay: Virus yield assay, ZIKV^Br on A549 cells; type: cell-based; conditions: Zika virus, 95% CI in brackets
[11] = Cytotoxicity by WST-8, VeroE6 cells; type: cell-based; conditions: simian, 95% CI in brackets
Description: (§1) Cytotoxic/cytostatic effects were evaluated in uninfected cells by WST‐8 (Orangu, Cell Guidance Systems): 1 × 10^4 cells/well in a 96‐well plate were incubated in the presence of threefold serial dilutions of compounds, from 0.30 to 218 μM, for 48 h. Medium was replaced with 50 μL of 10% WST‐8, in DMEM, 2% FBS. Following a 1‐h incubation at 37°C, optical density (OD) in wells was measured at 450 nm using Varioskan LUX (ThermoFisher Scientific). CC50 was calculated using the formula: %viability=100×(ODcompound/ODuntreated control) where ODcompound and ODuntreated are the OD of the cells treated with compound or DMSO, respectively.

[12] = Cytotoxicity by WST-8, HMC3 cells; type: cell-based; conditions: human, 95% CI in brackets
Description: as §1

[13] = Cytotoxicity by WST-8, C6/36 cells; type: cell-based; conditions: Aedes albopictus, 95% CI in brackets
Description: as §1

[14] = Cytotoxicity by WST-8, A549 cells; type: cell-based; conditions: human, 95% CI in brackets
Description: as §1

[15] = system: ZIKV^Ug; assay: microbe, parasite or virus in culture; type: cell-based; conditions: Zika virus; ZIKV^Ug (Huh-7); 95% CI in brackets
[16] = system: USUV; assay: microbe, parasite or virus in culture; type: cell-based; conditions: Usutu virus; USUV (Huh-7); 95% CI in brackets
[17] = system: WNV; assay: microbe, parasite or virus in culture; type: cell-based; conditions: West Nile virus; WNV (Huh-7); 95% CI in brackets
[18] = system: SARS-CoV-2^Mi; assay: microbe, parasite or virus in culture; type: cell-based; conditions: Severe acute respiratory syndrome coronavirus 2; SARS-CoV-2^Mi (Vero TMPRSS); 95% CI in brackets
[19] = system: CVB5; assay: Plaque reduction assay, CVB5 on A549 cells; type: cell-based, Coxsackievirus B5; conditions: Enterovirus B, 95% CI in brackets
[20] = system: CHIKV; assay: Plaque reduction assay, CHIKV on Huh-7 cells; type: cell-based; conditions: Chikungunya virus, CHIKV (Huh-7), 95% CI in brackets
[21] = system: VSV; assay: microbe, parasite or virus in culture; type: cell-based; conditions: Vesicular stomatitis virus, Huh-7
[22] = system: VV-IND-G; assay: microbe, parasite or virus in culture; type: cell-based, Vaccinia virus recombinant for VSV-Indiana G protein; conditions: Orthopoxvirus vaccinia, Huh-7
[23] = system: HSV2; assay: Plaque reduction assay, HSV2 on A549 cells; type: cell-based, herpes simplex virus 2; conditions: Human alphaherpesvirus 2
[24] = system: IAV; assay: microbe, parasite or virus in culture; type: cell-based; conditions: Influenza A virus, MDCK
[25] = system: TOSV; assay: Plaque reduction assay, TOSV on VeroE6 cells; type: cell-based; conditions: Toscana virus, Vero C1008
[26] = system: ZIKV NS5; assay: ZIKV protein synthesis by western blot (NS5), Huh-7 cells; type: cell-based, Zika virus; conditions: MOI 1, 1x, 5x, 10x EC50 (PS1097 0.6, 3, 6 μM; SOF 1.5, 7.5, 15 μM), 48 h
Description: (§2) Immunoblotting was performed as described.
(§3) Viral protein levels in cell lysates were analyzed by immunoblotting (Figure 3A,B), while virion release was assessed by quantifying ZIKV RNA in supernatants (Figure 3C).
(§4) Impact of treatment on ZIKV protein synthesis was evaluated on cell extracts analyzed by western blot using anti‐ ZIKV NS5, or anti‐GAPDH as a housekeeping control.

[27] = system: ZIKV NS5; assay: ZIKV protein synthesis by western blot (NS5), Vero E6 cells; type: cell-based, Zika virus; conditions: MOI 1, 1x, 5x, 10x EC50, 48 h
Description: as §2, §3, §4

[28] = system: ZIKV^Br; assay: Time-of-addition (TOA) experiments, ZIKV^Br in Huh-7 cells; type: cell-based, Zika virus; conditions: harvest 48 h p.i.; for Time of addition giving the strongest inhibition: Huh-7, ZIKV^Br MOI 1, 10x EC50 (PS1097 6 μM, SOF 15 μM)
Description: PS1097 was added at 6 μM at 0, 2, 6, 12, 24, and 36 h p.i. SOF was used as a reference compound at 15 μM. At 48 h p.i., viral proteins were determined by western blot or by qRT‐PCR in cell lysates.
To elucidate the mechanism of PS1097 antiviral action, TOA experiments were conducted (Figure 4A). ZIKV^Br replication kinetics was assessed by quantifying viral genomic RNA and protein inside Huh‐7 cells at the times p.i. shown in Figure 4A. Viral RNA was detectable as of ~12 h p.i. (Figure 4D), whereas viral protein was visible after 24 h p.i. (Figure 4B,C). In parallel, cells were exposed to viral inoculum for 2 h. […] Then, they were harvested at 48 h p.i. Viral RNA in cells was measured by qRT‐PCR and inhibition relative to DMSO‐treated cells was calculated, as described by (Figure 4G).
(§5) Figure 4 (A) Experimental design of the Time Of Addition (TOA) assay for PS1097 and SOF. (B) ZIKV replication kinetics was determined on Huh‐7 cells infected at MOI 1for 2 h by western blot cell lysates prepared at the times shown. ZIKV NS5 and GAPDH were monitored with the antibodies in Supporting Information: Table S1. (C) Quantitative analysis of the results in B). (D) qRT‐PCR quantification of ZIKV RNA was carried out in ZIKV‐infected cells lysed at the times indicated on the x axis. (E) western blot of lysates of Huh‐7 cells harvested at 48 h p.i. where treatment with PS1097 or SOF was started as by A). (F) Quantitative analysis of the results in E). (G) ZIKV RNA was quantified in lysates of cells harvested at 48 h p.i. where treatment with PS1097 (red line) or SOF (green line) was started at the times p.i. indicated on the x axis. (H) Combined antiviral activity of PS1097 with SOF against ZIKV. Huh‐7 cells were infected with ZIKV then treated with PS1097 or SOF, alone or in combination, at the indicated concentrations. After 48 h p.i., supernatants were harvested and titrated for ZIKV yield. Two‐dimensional representation of dose–response interaction matrix was determined in synergyfinder.org. Color gradient indicates viral yield inhibition score (red‐highest score). […]

[29] = system: ZIKV^Br; assay: Synergism between PS1097 and SOF, ZIKV^Br yield; type: cell-based, Zika virus
Description: as §5, with “score). (I) Three‐dimensional surface plot representing synergy score (Z axis) for each compound combination.” for “score).”

[30] = system: ZIKV^Br
[31] = in vitro; conditions: simian
[32] = system: RTN4; assay: Western blot of ER proteins in Huh-7 cells: RTN4; conditions: 6 μM PS1097, 48 h
[33] = system: FAM134B; assay: Western blot of ER proteins in Huh-7 cells: FAM134B; conditions: 6 μM PS1097, 48 h
[34] = system: TMEM41B; assay: Western blot of ER proteins in Huh-7 cells: TMEM41B; conditions: 6 μM PS1097, 48 h
[35] = Zika virus, Huh-7, 48 h, ZIKV^Br on Huh-7 cells, viral yield reduction, 48 h, 95% confidence interval in brackets
[36] = Zika virus, Huh-7, read-out: EC50 ZIKV, Table S2, this paper data, Huh-7 cells, Na = no detected antiviral activity

Structure (SMILES): O=c1nc(NO)ccn1[C@@H]1O[C@H](CO)[C@@H](O)[C@H]1O [EIDD-1931, β‐D‐N4‐hydroxycytidine, reference compound]
- EC50 ([1]; Table S2, this paper data, Huh-7 cells, Na = no detected antiviral activity, read-out: EC50 ZIKV): 1.7 µM
- CC50 [2]: 148 µM

Structure (SMILES): CC(C)c1nc2cc3cccnc3c(Cl)c2[nH]c1=O [PS462]
- EC50 [1, 35]: > 100 µM
- EC50 [1, 36]: 100 µM
- EC50 [3]: 5 µM
- CC50 [4]: > 100 µM
- CC50 at 48 h [5]: 294 µM

Structure (SMILES): O=c1[nH]c2cc3cccnc3c(Cl)c2nc1-c1cccs1 [PS1097, 5‐chloro‐3‐(thiophen‐2‐yl) pyrido[2,3‐g] quinoxalin‐2(1H)‐one]
- EC50 ([1]; ZIKV^Br on Huh-7 cells, viral yield reduction, 48 h, 95% confidence interval in brackets): 0.69 µM
- EC50 [1, 35]: 0.6 µM
- EC50 ([1]; Zika virus, Huh-7, summary value of the discussion for Flaviviruses, read-out: EC50 against Flaviviruses): ~0.7 µM
- EC50 [6]: 1.34 µM
- EC50 [7]: 2.66 µM
- EC50 [8]: > 100 µM
- EC50 [9]: 5.51 µM
- EC50 [10]: 44.6 µM
- CC50 at 48 h ([11]; VeroE6 cells, VeroE6 cells (TOSV row of Table 2)): 575 µM
- CC50 at 48 h ([11]; VeroE6 cells (ZIKV^Br row of Table 2)): 126 µM
- CC50 at 48 h [12]: 294 µM
- CC50 at 48 h [13]: 150 µM
- CC50 at 48 h ([14]; A549 cells (CVB5 and HSV2 rows of Table 2)): 218 µM
- CC50 at 48 h ([14]; A549 cells (ZIKV^Br row of Table 2)): 130 µM
- EC50 [15]: 1.29 µM
- EC50 [16]: 0.86 µM
- EC50 [17]: 1.15 µM
- EC50 [18]: 0.1 µM
- EC50 [19]: 4.47 µM
- EC50 [20]: 4.4 µM
- EC50 [21]: > 50 µM
- EC50 [22]: 1.73 µM
- EC50 [23]: > 50 µM
- EC50 [24]: > 50 µM
- EC50 [25]: > 50 µM
- ZIKV protein expression (NS5, western blot) [26]: downregulated viral protein expression
- ZIKV protein content (NS5, western blot) [27]: consistently reduced protein levels
- Time of addition up to which viral protein expression is suppressed ([28]; Huh-7, ZIKV^Br MOI 1, 10x EC50 (6 μM)): up to 12 h p.i.
- Time of addition giving the strongest inhibition [28]: 0–6 h p.i.
- Interaction of PS1097 with SOF (synergy) ([29]; combined treatment PS1097 2.0–0.125 μM with SOF 5.0–0.39 μM, 48 h p.i., SynergyFinder): No synergistic effects
- Interaction of PS1097 with SOF at the highest concentrations ([29]; combined treatment, highest concentrations (PS1097 up to 2 μM, SOF up to 5 μM)): slight antagonistic effect
- Selection of resistant ZIKV variants ([30]; ZIKV^Br passaged weekly on Huh-7 from 0.6 μM PS1097, at least four attempts): no resistant strains
- Passage at which no viral yield was found ([30]; ZIKV^Br passaged weekly on Huh-7 in the presence of PS1097): 9 passage
- EC50 [3]: 5 µM
- CC50 [4]: > 100 µM
- CC50 [31]: 86.2 µM
- CC50 ([31]; CC50, Vero TMPRSS cells (SARS-CoV-2^Mi row of Table 2), 95% CI in brackets): 436 µM
- CC50 at 48 h [5]: 229 µM
- RTN4 protein content (western blot) [32]: virtually unchanged
- FAM134B protein content (western blot) [33]: virtually unchanged
- TMEM41B protein content (western blot) [34]: virtually unchanged

Structure (SMILES): Cn1c(=O)c(-c2cccs2)nc2c(Cl)c3ncccc3cc21 [PS1240]
- EC50 [1, 35]: 2.06 µM
- EC50 [3]: 2 µM
- CC50 [4]: > 100 µM
- CC50 at 48 h [5]: 293 µM

Structure (SMILES): NC(=O)c1ncn([C@@H]2O[C@H](CO)[C@@H](O)[C@H]2O)n1 [RBV, 1‐(b‐D‐ribofuranosyl)‐1H‐1,2,4‐triazole‐3‐carboxamide, reference compound]
- EC50 ([1]; Zika virus, ZIKV^Br on Huh-7 cells, viral yield reduction, 48 h, 95% confidence interval in brackets, read-out: EC50): 8.8 µM
- CC50 at 48 h [5]: 144 µM

Structure (SMILES): CC(C)OC(=O)[C@H](C)N[P@](=O)(OC[C@H]1O[C@@H](n2ccc(=O)[nH]c2=O)[C@](C)(F)[C@@H]1O)Oc1ccccc1 [SOF, Sofosbuvir, reference compound]
- EC50 [1, 35]: 1.5 µM
- EC50 [1, 36]: 1.53 µM
- ZIKV protein expression (NS5, western blot) [26]: completely abolished protein synthesis
- ZIKV protein content (NS5, western blot) [27]: no effect on viral protein content
- Time of addition giving the strongest inhibition [28]: 0–6 h p.i.
- CC50 at 48 h [5]: 282 µM
